Key:
[1] = The drug is tested on Collinsella aerofaciens strain: ATCC25986 for biotransformation. The drug concentrations were measured before and after a 12-h incubation by liquid-chromatography-coupled mass spectrometry (LC–MS); details: 2 µM
[2] = The drug is tested on Collinsella intestinalis strain: DSM13280 for biotransformation. The drug concentrations were measured before and after a 12-h incubation by liquid-chromatography-coupled mass spectrometry (LC–MS); details: 2 µM
[3] = The drug is tested on Bacteroides cellulosilyticus strain: DSM14838 for biotransformation. The drug concentrations were measured before and after a 12-h incubation by liquid-chromatography-coupled mass spectrometry (LC–MS); details: 2 µM
[4] = The drug is tested on Bacteroides coprophilus strain: DSM18228 for biotransformation. The drug concentrations were measured before and after a 12-h incubation by liquid-chromatography-coupled mass spectrometry (LC–MS); details: 2 µM
[5] = The drug is tested on Bacteroides fragilis strain: HMW615 for biotransformation. The drug concentrations were measured before and after a 12-h incubation by liquid-chromatography-coupled mass spectrometry (LC–MS); details: 2 µM
[6] = The drug is tested on Bacteroides fragilis strain: ATCC43859 for biotransformation. The drug concentrations were measured before and after a 12-h incubation by liquid-chromatography-coupled mass spectrometry (LC–MS); details: 2 µM
[7] = The drug is tested on Bacteroides ovatus strain: ATCC8483 for biotransformation. The drug concentrations were measured before and after a 12-h incubation by liquid-chromatography-coupled mass spectrometry (LC–MS); details: 2 µM
[8] = The drug is tested on Bacteroides sp. WH2 strain: WH2 for biotransformation. The drug concentrations were measured before and after a 12-h incubation by liquid-chromatography-coupled mass spectrometry (LC–MS); details: bacteroides sp. wh2, 12 h, 2 µM
[9] = The drug is tested on Bacteroides xylanisolvens strain: DSM18836 for biotransformation. The drug concentrations were measured before and after a 12-h incubation by liquid-chromatography-coupled mass spectrometry (LC–MS); details: 2 µM
[10] = The drug is tested on Odoribacter splanchnicus strain: fecal isolate for biotransformation. The drug concentrations were measured before and after a 12-h incubation by liquid-chromatography-coupled mass spectrometry (LC–MS); details: 2 µM
[11] = The drug is tested on Clostridium sporogenes strain: ATCC15579 for biotransformation. The drug concentrations were measured before and after a 12-h incubation by liquid-chromatography-coupled mass spectrometry (LC–MS); details: 2 µM
[12] = The drug is tested on Dorea formicigenerans strain: ATCC27755 for biotransformation. The drug concentrations were measured before and after a 12-h incubation by liquid-chromatography-coupled mass spectrometry (LC–MS); details: 2 µM
[13] = The drug is tested on Eubacterium rectale strain: ATCC33656 for biotransformation. The drug concentrations were measured before and after a 12-h incubation by liquid-chromatography-coupled mass spectrometry (LC–MS); details: agathobacter rectalis, 2 µM
[14] = The drug is tested on Providencia rettgeri strain: DSM1131 for biotransformation. The drug concentrations were measured before and after a 12-h incubation by liquid-chromatography-coupled mass spectrometry (LC–MS); type: ADME; parameters: dose 2 uM, timepoint 0 vs 12 hours; details: 2 µM
[15] = The drug is tested on Providencia stuartii strain: ATCC25827 for biotransformation. The drug concentrations were measured before and after a 12-h incubation by liquid-chromatography-coupled mass spectrometry (LC–MS); details: 2 µM
[16] = bacteroides fragilis, 12 h, 2 µM
Description: The drug is tested on Bacteroides fragilis strain: 3397 (T10) for biotransformation. The drug concentrations were measured before and after a 12-h incubation by liquid-chromatography-coupled mass spectrometry (LC–MS)

[17] = bacteroides thetaiotaomicron, 12 h, 2 µM
Description: The drug is tested on Bacteroides thetaiotaomicron strain: VPI-5482 for biotransformation. The drug concentrations were measured before and after a 12-h incubation by liquid-chromatography-coupled mass spectrometry (LC–MS)

[18] = bacteroides thetaiotaomicron, 12 h, 2 µM; remark: listed apart in the source
Description: The drug is tested on Bacteroides thetaiotaomicron strain: 3731 for biotransformation. The drug concentrations were measured before and after a 12-h incubation by liquid-chromatography-coupled mass spectrometry (LC–MS)

[19] = parabacteroides johnsonii, 12 h, 2 µM
Description: The drug is tested on Parabacteroides johnsonii strain: DSM18315 for biotransformation. The drug concentrations were measured before and after a 12-h incubation by liquid-chromatography-coupled mass spectrometry (LC–MS)

[20] = akkermansia muciniphila, 12 h, 2 µM
Description: The drug is tested on Akkermansia muciniphila strain: ATCC BAA-835 for biotransformation. The drug concentrations were measured before and after a 12-h incubation by liquid-chromatography-coupled mass spectrometry (LC–MS)

COc1cc2nc(N3CCN(C(=O)C4CCCO4)CC3)nc(N)c2cc1OC (stereo not given) [TERAZOSIN]
Bacterial Biotransformation [1]: Compound NOT metabolized
Bacterial Biotransformation [2]: Compound NOT metabolized
Bacterial Biotransformation [3]: Compound NOT metabolized
Bacterial Biotransformation [4]: Compound NOT metabolized
Bacterial Biotransformation [5]: Compound NOT metabolized
Bacterial Biotransformation [6]: Compound NOT metabolized
Bacterial Biotransformation [7]: Compound NOT metabolized
Bacterial Biotransformation [8]: Compound NOT metabolized
Bacterial Biotransformation [9]: Compound NOT metabolized
Bacterial Biotransformation [10]: Compound NOT metabolized
Bacterial Biotransformation [11]: Compound NOT metabolized
Bacterial Biotransformation [12]: Compound NOT metabolized
Bacterial Biotransformation [13]: Compound NOT metabolized
Bacterial Biotransformation [14]: Compound NOT metabolized
Bacterial Biotransformation [15]: Compound NOT metabolized
Bacterial Biotransformation [16]: Compound NOT metabolized
Bacterial Biotransformation [17]: Compound NOT metabolized
Bacterial Biotransformation [18]: Compound NOT metabolized
Bacterial Biotransformation [19]: Compound NOT metabolized
Bacterial Biotransformation [20]: Compound NOT metabolized

O=c1[nH]c2ccccc2n1C1CCN(CCCC(c2ccc(F)cc2)c2ccc(F)cc2)CC1 [PIMOZIDE]
Bacterial Biotransformation [1]: Compound NOT metabolized
Bacterial Biotransformation [2]: Compound NOT metabolized
Bacterial Biotransformation [3]: Compound NOT metabolized
Bacterial Biotransformation [4]: Compound NOT metabolized
Bacterial Biotransformation [5]: Compound NOT metabolized
Bacterial Biotransformation [6]: Compound NOT metabolized
Bacterial Biotransformation [7]: Compound NOT metabolized
Bacterial Biotransformation [8]: Compound NOT metabolized
Bacterial Biotransformation [9]: Compound NOT metabolized
Bacterial Biotransformation [10]: Compound NOT metabolized
Bacterial Biotransformation [11]: Compound NOT metabolized
Bacterial Biotransformation [12]: Compound NOT metabolized
Bacterial Biotransformation [13]: Compound NOT metabolized
Bacterial Biotransformation [14]: Compound NOT metabolized
Bacterial Biotransformation [15]: Compound NOT metabolized
Bacterial Biotransformation [16]: Compound NOT metabolized
Bacterial Biotransformation [17]: Compound NOT metabolized
Bacterial Biotransformation [18]: Compound NOT metabolized
Bacterial Biotransformation [19]: Compound NOT metabolized
Bacterial Biotransformation [20]: Compound NOT metabolized

CN(C/C=C/C#CC(C)(C)C)Cc1cccc2ccccc12 [TERBINAFINE]
Bacterial Biotransformation [1]: Compound NOT metabolized
Bacterial Biotransformation [2]: Compound NOT metabolized
Bacterial Biotransformation [3]: Compound NOT metabolized
Bacterial Biotransformation [4]: Compound NOT metabolized
Bacterial Biotransformation [5]: Compound NOT metabolized
Bacterial Biotransformation [6]: Compound NOT metabolized
Bacterial Biotransformation [7]: Compound NOT metabolized
Bacterial Biotransformation [8]: Compound NOT metabolized
Bacterial Biotransformation [9]: Compound NOT metabolized
Bacterial Biotransformation [10]: Compound NOT metabolized
Bacterial Biotransformation [11]: Compound NOT metabolized
Bacterial Biotransformation [12]: Compound NOT metabolized
Bacterial Biotransformation [13]: Compound NOT metabolized
Bacterial Biotransformation [14]: Compound NOT metabolized
Bacterial Biotransformation [15]: Compound NOT metabolized
Bacterial Biotransformation [16]: Compound NOT metabolized
Bacterial Biotransformation [17]: Compound NOT metabolized
Bacterial Biotransformation [18]: Compound NOT metabolized
Bacterial Biotransformation [19]: Compound NOT metabolized
Bacterial Biotransformation [20]: Compound NOT metabolized

C=CC[C@@H]1/C=C(\C)C[C@H](C)C[C@H](OC)[C@H]2O[C@@](O)(C(=O)C(=O)N3CCCC[C@H]3C(=O)O[C@H](/C(C)=C/[C@@H]3CC[C@@H](O)[C@H](OC)C3)[C@H](C)[C@@H](O)CC1=O)[C@H](C)C[C@@H]2OC.O [TACROLIMUS]
Bacterial Biotransformation [1]: Compound metabolized
Bacterial Biotransformation [2]: Compound metabolized
Bacterial Biotransformation [3]: Compound metabolized
Bacterial Biotransformation [4]: Compound metabolized
Bacterial Biotransformation [5]: Compound NOT metabolized
Bacterial Biotransformation [6]: Compound NOT metabolized
Bacterial Biotransformation [7]: Compound NOT metabolized
Bacterial Biotransformation [8]: Compound NOT metabolized
Bacterial Biotransformation [9]: Compound metabolized
Bacterial Biotransformation [10]: Compound metabolized
Bacterial Biotransformation [11]: Compound metabolized
Bacterial Biotransformation [12]: Compound NOT metabolized
Bacterial Biotransformation [13]: Compound metabolized
Bacterial Biotransformation [14]: Compound metabolized
Bacterial Biotransformation [15]: Compound NOT metabolized
Bacterial Biotransformation [16]: Compound NOT metabolized
Bacterial Biotransformation [17]: Compound NOT metabolized
Bacterial Biotransformation [18]: Compound NOT metabolized
Bacterial Biotransformation [19]: Compound metabolized
Bacterial Biotransformation [20]: Compound metabolized

From ChEMBL document CHEMBL5303573, “Mapping human microbiome drug metabolism by gut bacteria and their genes” (Nature, 2019)
